Biological target: T1, Full length wild-type cereblon CRBN (Homo sapiens, UniProt Q96SW2)
T1 construct: Full length wild-type cereblon CRBN (80.0 nM, 10 μL) was incubated in assay buffer
Assay: Fluorescence polarization (FP) assay indicating cereblon binding
Settings: Table 3B; read-out: rFP IC50
Method: Compound activity was monitored in a fluorescence polarization (FP) homogeneous assay using 1-[5-({2-[2-(2-{[2-(2,6-dioxopiperidin-3-yl)-1,3-dioxo-2,3-dihydro-1H-isoindol-4-yl]oxy}acetamido)ethoxy]ethyl}carbamoyl)pentyl]-3,3-dimethyl-2-[(1E,3E)-5-[(2E)-1,3,3-trimethyl-5-sulfo-2,3-dihydro-1H-indol-2-ylidene]penta-1,3-dien-1-yl]-3H-indol-1-ium-5-sulfonate as a fluorescent probe. Unless otherwise stated, all reagents were purchased from Sigma Aldrich. Enzymatic reactions were conducted in Perkin-Elmer Black 384 well ProxiPlate Plus (catalogue no. 6008269) in 10 μL total volume. Full length wild-type cereblon CRBN (80.0 nM, 10 μL) was incubated in assay buffer containing 20 mM HEPES (pH 8.0), […], 0.5 mM TCEP and 0.05% Tween 20 in the presence or absence of compound (300 nL). Inhibitors were stored as 10 mM DMSO stocks in an inert environment (low humidity, dark, low oxygen, room temperature) using the Storage Pod System. Compounds and DMSO were dispensed using the Echo E5XX (Labcyte Inc. USA) to give concentrations from 300 to 0.937 or 3000 to 9.3 nM in a 12 data point curve. […] Following incubation at room temperature for 30 min, the assay was initiated by dispensing the probe to a final concentration of 5 nM (2.5 nL of a 20 μM stock) using the Echo E5XX. FP was measured after a period of 12 hours using a Pherastar plate reader (BMG Labtech, Germany) exciting at 590 nm and measuring the amount of parallel and perpendicular light at 675 nm. The FP signal was subsequently normalized to the no-compound control (i.e., DMSO). Analysis and IC50 values were derived using Dotmatics (Dotmatics UK) software.

T1 sequence (Q96SW2 whole entry): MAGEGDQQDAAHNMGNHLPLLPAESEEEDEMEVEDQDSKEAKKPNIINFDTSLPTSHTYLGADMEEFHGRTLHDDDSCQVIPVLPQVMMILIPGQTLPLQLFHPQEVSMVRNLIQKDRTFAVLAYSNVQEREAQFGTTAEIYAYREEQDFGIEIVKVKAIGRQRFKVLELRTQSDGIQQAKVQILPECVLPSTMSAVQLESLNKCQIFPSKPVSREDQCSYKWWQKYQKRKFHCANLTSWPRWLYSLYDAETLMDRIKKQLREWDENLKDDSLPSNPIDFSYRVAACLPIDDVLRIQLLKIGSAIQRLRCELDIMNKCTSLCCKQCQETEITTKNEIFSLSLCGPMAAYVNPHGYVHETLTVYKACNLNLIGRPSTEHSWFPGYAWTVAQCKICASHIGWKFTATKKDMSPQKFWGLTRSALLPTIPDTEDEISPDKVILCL

Compound	IC50 [nM]
Cc1ccc(NC(=O)OCc2cc(Br)c3c(c2)C(=O)N(C2CCC(=O)NC2=O)C3)cc1Cl (stereo not shown) [Compound 501]	> 1900
Cc1ccc(NC(=O)OCc2cc(C#N)c3c(c2)C(=O)N(C2CCC(=O)NC2=O)C3)cc1Cl (stereo not shown) [Compound 502]	> 1900
Cc1ccc(NC(=O)OCc2cc(F)c3c(c2)C(=O)N(C2CCC(=O)NC2=O)C3)cc1Cl (stereo not shown) [Compound 503]	> 1900
Cc1ccc(NC(=O)OCc2cc(Cl)c3c(c2)C(=O)N(C2CCC(=O)NC2=O)C3)cc1Cl (stereo not shown) [Compound 504]	> 1900
O=C1CCC(N2Cc3c(F)cc(COC(=O)Nc4cc(F)cc(OC(F)F)c4)cc3C2=O)C(=O)N1 (stereo not shown) [Compound 506]	> 1900
O=C1CCC(N2Cc3c(F)cc(COC(=O)Nc4ccc(-c5ccccc5)nc4)cc3C2=O)C(=O)N1 (stereo not shown) [Compound 508]	> 1900
O=C1CCC(N2Cc3c(F)cc(COC(=O)Nc4ccc(-c5ccccn5)cc4)cc3C2=O)C(=O)N1 (stereo not shown) [Compound 511]	≤ 600
O=C1CCC(N2Cc3c(F)cc(COC(=O)Nc4cc(F)cc(OC(F)(F)F)c4)cc3C2=O)C(=O)N1 (stereo not shown) [Compound 512]	> 1900
CC1(c2ccc(NC(=O)OCc3cc(F)c4c(c3)C(=O)N(C3CCC(=O)NC3=O)C4)cc2)CC1 (stereo not shown) [Compound 513]	> 1900
O=C1CCC(N2Cc3c(F)cc(COC(=O)Nc4cccc(OC(F)(F)F)c4)cc3C2=O)C(=O)N1 (stereo not shown) [Compound 515]	> 1900
Cc1ccccc1-c1ccc(NC(=O)OCc2cc(F)c3c(c2)C(=O)N(C2CCC(=O)NC2=O)C3)cn1 (stereo not shown) [Compound 519]	≤ 600
O=C1CCC(N2Cc3c(F)cc(COC(=O)Nc4cc(-c5ccccc5)ccn4)cc3C2=O)C(=O)N1 (stereo not shown) [Compound 524]	> 1900
CC(C)(C)c1cccc(NC(=O)OCc2cc(F)c3c(c2)C(=O)N(C2CCC(=O)NC2=O)C3)c1 (stereo not shown) [Compound 525]	> 1900
O=C1CCC(N2Cc3c(F)cc(COC(=O)Nc4cc(Cl)cc(Cl)c4)cc3C2=O)C(=O)N1 (stereo not shown) [Compound 528]	> 1900
Cc1cc(C)cc(NC(=O)OCc2cc(F)c3c(c2)C(=O)N(C2CCC(=O)NC2=O)C3)c1 (stereo not shown) [Compound 531]	> 1900
O=C1CCC(N2Cc3c(F)cc(COC(=O)Nc4cc(Cl)cc(OC(F)F)c4)cc3C2=O)C(=O)N1 (stereo not shown) [Compound 534]	> 1900
Cc1ccc(NC(=O)OCc2cc(F)c3c(c2)C(=O)N(C2CCC(=O)NC2=O)C3)cc1OC(F)F (stereo not shown) [Compound 535]	> 1900
COc1cc(COC(=O)Nc2ccc3c(c2)OCC3(C)C)cc2c1CN(C1CCC(=O)NC1=O)C2=O (stereo not shown) [Compound 537]	≤ 600
COc1cc(COC(=O)Nc2ccc(N3CCCCC3C)nc2)cc2c1CN(C1CCC(=O)NC1=O)C2=O (stereo not shown) [Compound 538]	≤ 600
COc1cc(COC(=O)Nc2ccc(C3(C)CC3)cc2)cc2c1CN(C1CCC(=O)NC1=O)C2=O (stereo not shown) [Compound 540]	≤ 600
COc1cc(COC(=O)Nc2ccc(C(C)(C)C)nc2)cc2c1CN(C1CCC(=O)NC1=O)C2=O (stereo not shown) [Compound 544]	≤ 600
COc1cc(COC(=O)Nc2cc(C)cc(C)c2)cc2c1CN(C1CCC(=O)NC1=O)C2=O (stereo not shown) [Compound 552]	≤ 600

Same assay, conditions: bound stated; read-out: IC50 value

Compound	IC50 [nM]
COc1ccccc1CNC(=O)OCc1ccc2c(c1)C(=O)N(C1CCC(=O)NC1=O)C2 (stereo not shown) [Compound 297]	< 1100
CC1COc2cc(NC(=O)OCc3ccc4c(c3)C(=O)N(C3CCC(=O)NC3=O)C4)ccc21 (stereo not shown) [Compound 303]	< 1100

Same assay, conditions: bounds stated; read-out: IC50 value

Compound	IC50 [nM]
COc1ccc(NC(=O)NCc2ccc3c(c2)C(=O)N(C2CCC(=O)NC2=O)C3)cc1 (stereo not shown) [Compound 5]	< 600
COc1ccccc1NC(=O)NCc1ccc2c(c1)C(=O)N(C1CCC(=O)NC1=O)C2 (stereo not shown) [Compound 7]	< 600
CC(C)(C)c1ccccc1NC(=O)NCc1ccc2c(c1)C(=O)N(C1CCC(=O)NC1=O)C2 (stereo not shown) [Compound 11]	< 600
CCOc1ccc(NC(=O)NCc2ccc3c(c2)C(=O)N(C2CCC(=O)NC2=O)C3)cc1 (stereo not shown) [Compound 16]	< 600
COc1ccc(C)cc1NC(=O)NCc1ccc2c(c1)C(=O)N(C1CCC(=O)NC1=O)C2 (stereo not shown) [Compound 17]	< 600
CCc1ccc(NC(=O)NCc2ccc3c(c2)C(=O)N(C2CCC(=O)NC2=O)C3)cc1 (stereo not shown) [Compound 18]	< 600
Cc1c(Cl)cccc1NC(=O)NCc1ccc2c(c1)C(=O)N(C1CCC(=O)NC1=O)C2 (stereo not shown) [Compound 19]	< 600
Cc1ccc(NC(=O)NCc2ccc3c(c2)C(=O)N(C2CCC(=O)NC2=O)C3)cc1 (stereo not shown) [Compound 21]	< 600
COc1ccc(NC(=O)NCc2ccc3c(c2)C(=O)N(C2CCC(=O)NC2=O)C3)c(C)c1 (stereo not shown) [Compound 23]	< 600
O=C1CCC(N2Cc3ccc(CNC(=O)NCC4CC4)cc3C2=O)C(=O)N1 (stereo not shown) [Compound 26]	< 600
O=C1CCC(N2Cc3ccc(CNC(=O)NCCc4ccccc4)cc3C2=O)C(=O)N1 (stereo not shown) [Compound 27]	< 600
CCc1ccccc1NC(=O)NCc1ccc2c(c1)C(=O)N(C1CCC(=O)NC1=O)C2 (stereo not shown) [Compound 36]	< 600
Cc1ccccc1NC(=O)NCc1ccc2c(c1)C(=O)N(C1CCC(=O)NC1=O)C2 (stereo not shown) [Compound 37]	< 600
O=C1CCC(N2Cc3ccc(CNC(=O)Nc4cc(Cl)cc(Cl)c4)cc3C2=O)C(=O)N1 (stereo not shown) [Compound 38]	< 600
O=C1CCC(N2Cc3ccc(CNC(=O)Nc4ccc(F)c(F)c4)cc3C2=O)C(=O)N1 (stereo not shown) [Compound 39]	< 600
O=C1CCC(N2Cc3ccc(CNC(=O)NC4CCCc5ccccc54)cc3C2=O)C(=O)N1 (stereo not shown) [Compound 40]	< 600

Compound	IC50 [nM]
O=C1CCC(N2Cc3ccc(CNC(=O)Nc4ccc(C(F)(F)F)cc4)cc3C2=O)C(=O)N1 (stereo not shown) [Compound 41]	< 600
O=C1CCC(N2Cc3ccc(CNC(=O)Nc4ccc(F)c(Cl)c4)cc3C2=O)C(=O)N1 (stereo not shown) [Compound 42]	< 600
Cc1cccc(NC(=O)NCc2ccc3c(c2)C(=O)N(C2CCC(=O)NC2=O)C3)c1 (stereo not shown) [Compound 43]	< 600
Cc1cccc(NC(=O)NCc2ccc3c(c2)C(=O)N(C2CCC(=O)NC2=O)C3)c1C (stereo not shown) [Compound 44]	< 600
O=C1CCC(N2Cc3ccc(CNC(=O)Nc4ccc(Cl)cc4Cl)cc3C2=O)C(=O)N1 (stereo not shown) [Compound 45]	< 600
O=C1CCC(N2Cc3ccc(CNC(=O)Nc4ccccc4F)cc3C2=O)C(=O)N1 (stereo not shown) [Compound 48]	< 600
O=C1CCC(N2Cc3ccc(CNC(=O)Nc4ccccc4C(F)(F)F)cc3C2=O)C(=O)N1 (stereo not shown) [Compound 49]	< 600
O=C1CCC(N2Cc3ccc(CNC(=O)Nc4cccc(Cl)c4Cl)cc3C2=O)C(=O)N1 (stereo not shown) [Compound 50]	< 600
COc1ccc(CNC(=O)NCc2ccc3c(c2)C(=O)N(C2CCC(=O)NC2=O)C3)cc1 (stereo not shown) [Compound 52]	< 600
COc1cccc(CNC(=O)NCc2ccc3c(c2)C(=O)N(C2CCC(=O)NC2=O)C3)c1 (stereo not shown) [Compound 53]	< 600
C[C@@H](NC(=O)NCc1ccc2c(c1)C(=O)N(C1CCC(=O)NC1=O)C2)c1ccccc1 (stereo partly shown) [Compound 54]	< 600
CC(C)(C)c1ccc(NC(=O)NCc2ccc3c(c2)C(=O)N(C2CCC(=O)NC2=O)C3)cc1 (stereo not shown) [Compound 56]	< 600
CC(C)c1ccc(NC(=O)NCc2ccc3c(c2)C(=O)N(C2CCC(=O)NC2=O)C3)cc1 (stereo not shown) [Compound 57]	< 600
O=C1CCC(N2Cc3ccc(CNC(=O)NCC4CCCCC4)cc3C2=O)C(=O)N1 (stereo not shown) [Compound 58]	< 600
Cc1ccc(F)cc1NC(=O)NCc1ccc2c(c1)C(=O)N(C1CCC(=O)NC1=O)C2 (stereo not shown) [Compound 62]	< 600
